Laboratory results taken from ChEMBL document CHEMBL5465560, “Selectivity Literature for EUbOPEN Chemogenomic Library” (2024).

Key:
[1] = molecular target: Ribosomal protein S6 kinase beta-1 (Homo sapiens, UniProt P23443); test: Selectivity interaction (KinomeScan (DiscoverX)) EUB0000045b RPS6KB1
[2] = molecular target: Phosphatidylinositol 4-phosphate 3-kinase C2 domain-containing subunit beta (Homo sapiens) (UniProt O00750); test: Selectivity interaction (KinomeScan (DiscoverX)) EUB0000045b PIK3C2B
[3] = molecular target: MAP kinase-interacting serine/threonine-protein kinase 1 (Homo sapiens) (UniProt Q9BUB5); test: Selectivity interaction (KinomeScan (DiscoverX)) EUB0000695a MKNK1; details: at 100 nM
[4] = molecular target: Phosphatidylinositol 4-phosphate 5-kinase type-1 gamma (Homo sapiens) (UniProt O60331); test: Selectivity interaction (KinomeScan (DiscoverX)) EUB0000695a PIP5K1C; details: at 100 nM
[5] = molecular target: Tyrosine-protein kinase Lyn (Homo sapiens, UniProt P07948); test: Selectivity interaction (Kinase panel (Z-LYTE Assay)) EUB0001632a LYN; details: at 10 µM
[6] = molecular target: T1, Calcium/calmodulin-dependent protein kinase type IV (Homo sapiens) (UniProt Q16566); test: Selectivity interaction (Kinase screening (Upstate/Millipore)) EUB0000604a CAMK4
T1 sequence (whole entry): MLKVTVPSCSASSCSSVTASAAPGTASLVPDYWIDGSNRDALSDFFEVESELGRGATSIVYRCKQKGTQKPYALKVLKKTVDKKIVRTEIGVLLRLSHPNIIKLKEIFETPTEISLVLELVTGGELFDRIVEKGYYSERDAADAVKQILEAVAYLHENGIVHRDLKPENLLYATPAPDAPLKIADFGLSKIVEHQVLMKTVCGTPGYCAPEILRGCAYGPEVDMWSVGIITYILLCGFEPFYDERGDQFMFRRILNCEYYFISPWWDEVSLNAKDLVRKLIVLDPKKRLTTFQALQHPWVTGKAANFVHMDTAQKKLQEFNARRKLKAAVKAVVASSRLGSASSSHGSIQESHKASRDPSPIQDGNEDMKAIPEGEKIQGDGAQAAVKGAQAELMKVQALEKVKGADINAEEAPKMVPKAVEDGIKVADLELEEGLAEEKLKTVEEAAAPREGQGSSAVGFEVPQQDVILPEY

[7] = molecular target: Serine/threonine-protein kinase haspin (Homo sapiens, UniProt Q8TF76); test: Selectivity interaction (Enzymatic assay) EUB0001550a GSG2
[8] = molecular target: Phosphatidylinositol 4,5-bisphosphate 3-kinase catalytic subunit gamma isoform (Homo sapiens) (UniProt P48736); test: Selectivity interaction (KinomeScan (DiscoverX)) EUB0001619a PIK3CG; details: at 1 µM
[9] = molecular target: Serine/threonine-protein kinase pim-3 (Homo sapiens) (UniProt Q86V86); test: Selectivity interaction (KinomeScan (DiscoverX)) EUB0001619a PIM3; details: at 1 µM
[10] = molecular target: T2, Mitogen-activated protein kinase kinase kinase 7 (Homo sapiens) (UniProt O43318); test: Selectivity interaction (KinomeScan (DiscoverX)) EUB0000607a MAP3K7; details: at 10 µM
T2 sequence (whole entry): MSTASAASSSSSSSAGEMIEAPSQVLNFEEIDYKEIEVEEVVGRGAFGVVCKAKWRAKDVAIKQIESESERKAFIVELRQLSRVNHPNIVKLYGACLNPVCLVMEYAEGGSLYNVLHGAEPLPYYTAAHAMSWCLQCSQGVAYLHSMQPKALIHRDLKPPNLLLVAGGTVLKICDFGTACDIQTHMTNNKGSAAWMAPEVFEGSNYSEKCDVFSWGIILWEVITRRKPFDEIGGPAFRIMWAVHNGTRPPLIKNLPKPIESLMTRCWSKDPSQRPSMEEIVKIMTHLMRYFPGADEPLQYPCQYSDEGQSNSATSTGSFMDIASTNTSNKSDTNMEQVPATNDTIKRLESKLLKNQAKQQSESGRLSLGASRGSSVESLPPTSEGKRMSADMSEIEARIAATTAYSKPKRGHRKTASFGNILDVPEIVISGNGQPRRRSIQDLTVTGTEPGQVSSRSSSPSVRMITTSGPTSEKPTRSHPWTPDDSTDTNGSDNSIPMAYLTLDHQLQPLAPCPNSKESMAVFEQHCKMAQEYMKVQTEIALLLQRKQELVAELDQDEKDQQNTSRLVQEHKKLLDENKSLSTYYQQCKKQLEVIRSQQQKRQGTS

[11] = molecular target: Cyclin-dependent kinase 1 (Homo sapiens) (UniProt P06493); test: Selectivity interaction (ActivX KiNativ screen (kinase selectivity in THP-1 cell lysates)) EUB0000639a CDK1; assay type: subcellular; details: lysate
Focal adhesion kinase 1 = Focal adhesion kinase 1 (Homo sapiens, UniProt Q05397); test: Selectivity interaction (ActivX KiNativ screen (kinase selectivity in THP-1 cell lysates)) EUB0000639a PTK2; assay type: subcellular; details: lysate, at 0.2 µM
[12] = molecular target: Insulin receptor-related protein (Homo sapiens) (UniProt P14616); test: Selectivity interaction (KinomeScan (DiscoverX)) EUB0000092b INSRR; details: at 10 µM

Chain of Cyclin-dependent kinase 1 (Homo sapiens) (P06493 whole entry, looked up): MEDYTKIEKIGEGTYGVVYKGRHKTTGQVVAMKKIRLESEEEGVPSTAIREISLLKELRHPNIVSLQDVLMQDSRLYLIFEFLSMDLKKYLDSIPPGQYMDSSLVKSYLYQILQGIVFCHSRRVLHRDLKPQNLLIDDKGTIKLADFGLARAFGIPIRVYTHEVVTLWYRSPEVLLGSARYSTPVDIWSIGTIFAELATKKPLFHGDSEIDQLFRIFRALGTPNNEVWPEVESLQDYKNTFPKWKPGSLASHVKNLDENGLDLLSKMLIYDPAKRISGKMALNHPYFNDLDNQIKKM
Chain of Phosphatidylinositol 4-phosphate 3-kinase C2 domain-containing subunit beta (Homo sapiens) (O00750 whole entry, the tested form may be a part): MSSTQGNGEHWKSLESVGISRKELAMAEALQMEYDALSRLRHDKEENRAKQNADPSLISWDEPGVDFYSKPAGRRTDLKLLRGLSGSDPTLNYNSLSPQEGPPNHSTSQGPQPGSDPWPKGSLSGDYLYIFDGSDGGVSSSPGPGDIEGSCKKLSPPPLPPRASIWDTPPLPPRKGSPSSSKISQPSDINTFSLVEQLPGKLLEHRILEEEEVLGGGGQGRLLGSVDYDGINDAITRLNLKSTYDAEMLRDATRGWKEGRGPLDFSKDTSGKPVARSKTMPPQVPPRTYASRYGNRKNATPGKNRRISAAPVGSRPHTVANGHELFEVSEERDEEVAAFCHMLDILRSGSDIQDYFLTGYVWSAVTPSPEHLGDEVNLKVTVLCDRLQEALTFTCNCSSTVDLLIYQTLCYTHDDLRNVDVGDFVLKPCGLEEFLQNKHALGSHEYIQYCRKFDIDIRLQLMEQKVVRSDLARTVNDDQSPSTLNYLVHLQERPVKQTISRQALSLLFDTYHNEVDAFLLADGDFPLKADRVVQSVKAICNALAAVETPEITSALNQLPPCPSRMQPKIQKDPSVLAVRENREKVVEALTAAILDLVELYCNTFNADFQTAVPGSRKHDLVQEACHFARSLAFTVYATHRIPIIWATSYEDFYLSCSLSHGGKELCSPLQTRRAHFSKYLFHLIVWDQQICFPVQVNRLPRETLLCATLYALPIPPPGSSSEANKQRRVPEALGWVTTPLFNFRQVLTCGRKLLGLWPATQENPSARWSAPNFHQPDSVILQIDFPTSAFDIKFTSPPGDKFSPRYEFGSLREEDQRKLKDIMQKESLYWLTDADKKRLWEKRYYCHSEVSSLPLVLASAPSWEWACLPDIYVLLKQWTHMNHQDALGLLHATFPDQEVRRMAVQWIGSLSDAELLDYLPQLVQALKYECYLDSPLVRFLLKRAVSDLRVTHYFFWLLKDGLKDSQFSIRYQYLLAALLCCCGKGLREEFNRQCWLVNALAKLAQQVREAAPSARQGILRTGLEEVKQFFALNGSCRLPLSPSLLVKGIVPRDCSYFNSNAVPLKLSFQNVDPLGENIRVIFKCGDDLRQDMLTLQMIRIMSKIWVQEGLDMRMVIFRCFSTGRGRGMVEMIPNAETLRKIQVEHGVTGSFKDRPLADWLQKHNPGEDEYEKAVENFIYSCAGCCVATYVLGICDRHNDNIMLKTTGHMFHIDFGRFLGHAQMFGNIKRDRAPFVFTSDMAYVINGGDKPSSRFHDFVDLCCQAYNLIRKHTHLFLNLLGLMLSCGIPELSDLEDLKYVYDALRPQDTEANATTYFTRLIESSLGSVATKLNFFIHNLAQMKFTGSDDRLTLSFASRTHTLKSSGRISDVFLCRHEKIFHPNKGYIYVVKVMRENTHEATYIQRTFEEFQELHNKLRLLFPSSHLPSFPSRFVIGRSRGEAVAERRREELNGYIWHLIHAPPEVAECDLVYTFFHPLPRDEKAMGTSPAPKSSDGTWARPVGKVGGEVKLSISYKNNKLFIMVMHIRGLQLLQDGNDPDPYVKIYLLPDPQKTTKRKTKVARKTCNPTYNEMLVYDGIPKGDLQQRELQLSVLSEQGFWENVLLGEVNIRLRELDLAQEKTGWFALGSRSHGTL
Chain of Ribosomal protein S6 kinase beta-1 (P23443 whole entry, looked up, the tested form may be a part): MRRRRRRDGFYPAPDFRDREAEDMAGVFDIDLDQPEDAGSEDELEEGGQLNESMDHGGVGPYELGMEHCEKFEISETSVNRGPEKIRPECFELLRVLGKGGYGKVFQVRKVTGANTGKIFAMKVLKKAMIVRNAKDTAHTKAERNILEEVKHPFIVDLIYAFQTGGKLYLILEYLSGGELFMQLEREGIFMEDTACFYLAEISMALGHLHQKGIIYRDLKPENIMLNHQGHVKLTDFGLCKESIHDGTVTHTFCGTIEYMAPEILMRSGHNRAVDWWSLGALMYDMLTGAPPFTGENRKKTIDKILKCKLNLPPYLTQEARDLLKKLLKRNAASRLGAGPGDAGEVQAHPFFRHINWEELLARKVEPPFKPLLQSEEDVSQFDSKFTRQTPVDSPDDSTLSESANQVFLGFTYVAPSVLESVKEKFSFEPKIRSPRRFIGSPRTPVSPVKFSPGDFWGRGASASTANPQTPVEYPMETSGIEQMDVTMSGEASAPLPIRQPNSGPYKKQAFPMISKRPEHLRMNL
Chain of Serine/threonine-protein kinase haspin (Q8TF76 whole entry, canonical isoform): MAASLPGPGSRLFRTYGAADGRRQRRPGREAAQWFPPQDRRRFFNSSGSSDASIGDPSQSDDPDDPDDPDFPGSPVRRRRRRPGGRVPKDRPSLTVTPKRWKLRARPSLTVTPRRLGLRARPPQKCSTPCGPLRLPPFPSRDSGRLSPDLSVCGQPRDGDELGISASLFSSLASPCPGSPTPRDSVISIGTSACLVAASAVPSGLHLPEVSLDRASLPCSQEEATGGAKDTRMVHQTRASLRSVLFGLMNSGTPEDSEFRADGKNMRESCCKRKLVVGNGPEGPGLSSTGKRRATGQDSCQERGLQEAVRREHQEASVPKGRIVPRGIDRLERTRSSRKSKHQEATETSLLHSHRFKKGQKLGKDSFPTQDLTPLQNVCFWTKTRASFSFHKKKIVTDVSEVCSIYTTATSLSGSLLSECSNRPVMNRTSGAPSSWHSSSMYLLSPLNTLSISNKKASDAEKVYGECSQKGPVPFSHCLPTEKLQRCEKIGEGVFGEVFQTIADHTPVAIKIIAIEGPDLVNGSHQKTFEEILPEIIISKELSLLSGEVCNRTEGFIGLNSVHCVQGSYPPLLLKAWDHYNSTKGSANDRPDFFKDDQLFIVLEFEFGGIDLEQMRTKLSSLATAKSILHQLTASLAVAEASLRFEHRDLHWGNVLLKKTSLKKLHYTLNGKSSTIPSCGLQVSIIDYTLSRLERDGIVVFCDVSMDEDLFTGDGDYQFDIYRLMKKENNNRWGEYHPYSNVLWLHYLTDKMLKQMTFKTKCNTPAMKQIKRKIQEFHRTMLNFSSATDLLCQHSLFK
Chain of Phosphatidylinositol 4,5-bisphosphate 3-kinase catalytic subunit gamma isoform (Homo sapiens) (P48736 whole entry, looked up, canonical isoform): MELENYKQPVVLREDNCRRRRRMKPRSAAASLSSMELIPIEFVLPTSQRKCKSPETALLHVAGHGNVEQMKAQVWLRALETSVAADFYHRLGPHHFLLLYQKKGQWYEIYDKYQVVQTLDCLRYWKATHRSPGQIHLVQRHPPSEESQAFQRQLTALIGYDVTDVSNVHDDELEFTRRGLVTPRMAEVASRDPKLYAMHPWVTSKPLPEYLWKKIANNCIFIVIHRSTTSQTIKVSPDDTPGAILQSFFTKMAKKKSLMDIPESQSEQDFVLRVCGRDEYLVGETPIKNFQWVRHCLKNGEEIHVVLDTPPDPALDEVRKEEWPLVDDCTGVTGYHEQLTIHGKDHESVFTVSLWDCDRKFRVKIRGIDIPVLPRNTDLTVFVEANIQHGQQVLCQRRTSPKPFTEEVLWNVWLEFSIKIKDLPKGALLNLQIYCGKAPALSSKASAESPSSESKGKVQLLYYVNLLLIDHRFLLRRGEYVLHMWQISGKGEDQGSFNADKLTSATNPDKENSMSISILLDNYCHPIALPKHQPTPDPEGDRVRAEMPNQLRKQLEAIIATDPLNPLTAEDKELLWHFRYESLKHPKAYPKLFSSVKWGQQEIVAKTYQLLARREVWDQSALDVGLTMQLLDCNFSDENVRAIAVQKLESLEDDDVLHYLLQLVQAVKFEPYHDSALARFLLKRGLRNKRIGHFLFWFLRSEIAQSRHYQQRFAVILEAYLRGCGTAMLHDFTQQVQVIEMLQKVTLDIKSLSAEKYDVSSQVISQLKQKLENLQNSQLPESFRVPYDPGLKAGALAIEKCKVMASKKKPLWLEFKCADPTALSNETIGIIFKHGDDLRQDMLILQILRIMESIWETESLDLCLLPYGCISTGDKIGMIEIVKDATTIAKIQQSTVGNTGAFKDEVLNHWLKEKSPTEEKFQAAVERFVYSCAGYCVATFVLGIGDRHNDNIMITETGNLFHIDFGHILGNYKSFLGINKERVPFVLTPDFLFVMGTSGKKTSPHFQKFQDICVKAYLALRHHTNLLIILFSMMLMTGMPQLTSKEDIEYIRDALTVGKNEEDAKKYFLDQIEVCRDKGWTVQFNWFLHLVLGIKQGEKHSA

Question: Which % of control ([1]; at 1 µM) does the source give for `C=CC(=O)Nc1cc(-n2c(=O)ccc3cnc4ccc(-c5ccc(NS(C)(=O)=O)cc5)cc4c32)ccc1C` here?
Answer: 100%

Question: And the % of control ([1]; at 10 µM)?
Answer: 76%

Question: And the % of control ([2]; at 1 µM)?
Answer: 100%

Question: And the % of control ([2]; at 10 µM)?
Answer: 40%

Question: What does the source list for `Cc1cc(F)c(C(=O)Nc2cccc(-c3nncn3C(C)C)n2)cc1-n1cnc(C2CC2)c1`?
Answer: % of control [3]: 96%; % of control [4]: 100%

Question: With `Cn1cc(-n2cnc3c(NCc4nc5cc(Cl)c(Cl)cc5[nH]4)nc(N4CCOCC4)nc32)cn1` as the molecule, how does the % of control [5] read?
Answer: 6.83%

Question: Which % of inhibition [6] does the source give for `Cc1cnc(Nc2ccc(F)cc2Cl)nc1-c1c[nH]c(C(=O)N[C@H](CO)c2cccc(Cl)c2)c1` here?
Answer: 0%

Question: For `CN(C)CC#Cc1ccc2[nH]c3c(c2c1)-c1nc(N)ncc1CCC3`, which IC50 [7] is on record?
Answer: 1400 nM

Question: What does the source list for `N#Cc1cccc(-c2c[nH]c3ncnc(N4CCOCC4)c23)c1`?
Answer: % of control [8]: 79%; % of control [9]: 100%

Question: `CNC(=O)Nc1ccc(-c2nc(N3CC4CCC(C3)O4)c3cnn(C4CCC5(CC4)OCCO5)c3n2)cc1` was tested. Which % of control [10] did it give?
Answer: 98%

Question: What does the source list for `CC[C@@H]1[C@H](F)C(=O)N[C@@H]1COc1nccc2cc(C(N)=O)c(OC)cc12` [ZIMLOVISERTIB]?
Answer: % of inhibition ([11]; at 0.01 µM): 2.4%; % of inhibition ([11]; at 0.04 µM): 3.3%; % of inhibition ([11]; at 0.2 µM): 14.8%; % of inhibition ([11]; at 1 µM): 3.1%; % of inhibition ([11]; at 5 µM): -9%; % of inhibition (Focal adhesion kinase 1): 5.5%

Question: How did the % of control [12] turn out when `CCC(=O)N1CCN(c2ccc(-n3c(=O)ccc4cnc5ccc(-c6cnc7ccccc7c6)cc5c43)cc2C(F)(F)F)CC1` was run?
Answer: 100%
